Results as given in patent publication US11174242B2, “Heteroaryl compounds and their use” (Minoryx Therapeutics S.L., priority 2016, dated 2021).

biological target: T1, β-glucocerebrosidase, p.L444P mutation (GM08760A fibroblasts) (Homo sapiens, UniProt P04062, L483P); assay: Enhancement of β-glucocerebrosidase activity measured in Gaucher disease fibroblasts (L444P); assay type: cell-based; details: commercially available compounds; increase in enzyme activity vs non-treated cells; GBA fibroblasts bearing L444P; 6-50 μM; 4 days
T1 construct: host or cells: human Gaucher patient fibroblasts GM08760A, homozygous L444P
T1 sequence (P04062 40-536 L483P): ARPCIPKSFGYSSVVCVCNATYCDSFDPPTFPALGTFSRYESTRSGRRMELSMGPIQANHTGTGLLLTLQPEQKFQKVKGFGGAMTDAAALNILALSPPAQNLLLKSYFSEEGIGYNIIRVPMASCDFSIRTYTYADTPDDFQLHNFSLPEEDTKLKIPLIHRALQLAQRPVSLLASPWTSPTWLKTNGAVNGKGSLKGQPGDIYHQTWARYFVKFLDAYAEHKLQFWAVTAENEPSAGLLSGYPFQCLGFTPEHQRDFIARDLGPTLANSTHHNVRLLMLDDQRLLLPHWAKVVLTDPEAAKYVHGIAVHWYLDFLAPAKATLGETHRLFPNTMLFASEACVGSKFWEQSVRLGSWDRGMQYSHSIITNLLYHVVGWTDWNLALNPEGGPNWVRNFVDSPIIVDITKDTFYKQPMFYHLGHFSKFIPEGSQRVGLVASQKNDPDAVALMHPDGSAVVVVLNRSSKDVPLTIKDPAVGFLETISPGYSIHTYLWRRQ
Method: Enhancement of β-Glucocerebrosidase Activity Measured in Gaucher Disease Fibroblasts Materials
Human fibroblasts from a patient with Gaucher disease homozygous for p.L444P mutation (GM08760A) were purchased from Coriell Institute for Medical Research (Camden, N.J., USA).
Fibroblasts were seeded at 5×10^3 cells per well in 96-well cell culture plates (Corning, N.Y., USA) in Dulbecco's Modified Eagle's Media (DMEM) supplemented with 10% of fetal bovine serum (FBS), 1% penicillin/streptomycin (P/S) (Thermo Fisher Scientific, Waltham, Mass., USA) and grown at 37° C., 5% CO2 overnight for cell attachment. Subsequently, cells were incubated in the absence or presence of the compounds at the desired concentration for 4 days. After incubation, cells were washed twice with phosphate-buffered saline (PBS) and enzyme activity assay was performed.
β-glucocerebrosidase activity in intact cultured cells was measured by using 4-methylumbelliferyl-β-D-glucopyranoside substrate (Apollo Scientific, UK). Briefly, cells were incubated with 4-MU-β-D-glucopyranoside in 0.1 M acetate buffer pH=4 at 37° C. for 1 hour. […] The liberated 4-MU was measured on a GloMax Discover plate reader (Promega, Madison, Wis., USA) with and excitation at 340 nm and emission at 460 nm. Enzyme activities were expressed in treated cells as X-fold increase in comparison with non-treated cells (X=1 represents no enhancement).
The capacity of the compounds of the disclosure to produce an increase in enzyme activity in GBA fibroblasts bearing L444P at concentrations between 6 and 50 μM is denoted as follows:
The following compounds listed in Table 2 were purchased (from Enamine, Princeton, Asinex, Vistas-M, and OSSK_541352) and tested in the assay as described above.

Compound | Activity L444P
COc1cccc(N2CCN(Cc3nc(N)nc(Nc4ccc(C)cc4)n3)CC2)c1 [6-((4-(3-methoxyphenyl)piperazin-1-yl)methyl)-N2-(p-tolyl)-1,3,5-triazine-2,4-diamine] | C (Increase in comparison with non-treated of 1.2-1.7 fold is shown as C)
Cc1ccc(Nc2nc(N)nc(CN3CCN(c4ccccc4)CC3)n2)cc1 [6-((4-phenylpiperazin-1-yl)methyl)-N2-(p-tolyl)-1,3,5-triazine-2,4-diamine] | C (Increase in comparison with non-treated of 1.2-1.7 fold is shown as C)
Cc1ccc(Nc2nc(N)nc(CN(C)CCOc3ccc(Cl)cc3)n2)cc1 [6-(((2-(4-chlorophenoxy)ethyl)(methyl)amino)methyl)-N2-(p-tolyl)-1,3,5-triazine-2,4-diamine] | C (Increase in comparison with non-treated of 1.2-1.7 fold is shown as C)
Cc1ccc(Nc2nc(N)nc(CN(C)Cc3ccco3)n2)cc1 [6-(((furan-2-ylmethyl)(methyl)amino)methyl)-N2-(p-tolyl)-1,3,5-triazine-2,4-diamine] | C (Increase in comparison with non-treated of 1.2-1.7 fold is shown as C)
Nc1nc(CN(Cc2ccc(F)cc2)C2CC2)nc(Nc2ccc(F)cc2)n1 [6-((cyclopropyl(4-fluorobenzyl)amino)methyl)-N2-(4-fluorophenyl)-1,3,5-triazine-2,4-diamine] | C (Increase in comparison with non-treated of 1.2-1.7 fold is shown as C)
Cc1ccc(CN(C)Cc2nc(N)nc(Nc3ccccc3C)n2)cc1 [6-((methyl(4-methylbenzyl)amino)methyl)-N2-(o-tolyl)-1,3,5-triazine-2,4-diamine] | C (Increase in comparison with non-treated of 1.2-1.7 fold is shown as C)
Cc1ccccc1Nc1nc(N)nc(CN(C)c2ccccc2)n1 [6-((methyl(phenyl)amino)methyl)-N2-(o-tolyl)-1,3,5-triazine-2,4-diamine] | C (Increase in comparison with non-treated of 1.2-1.7 fold is shown as C)

same assay, conditions: increase in enzyme activity vs non-treated cells; GBA fibroblasts bearing L444P; concentrations between 6 and 50 μM; 4 days incubation

Compound | Activity L444P
COc1ccc(Nc2nc(N)nc(CN(C)c3ccccc3)n2)cc1 [Example 2, N^2-(4-Methoxyphenyl)-6-((methyl(phenyl)amino)methyl)-1,3,5-triazine-2,4-diamine] | C (Increase in comparison with non-treated of 1.2-1.7 fold is shown as C)
CN(Cc1ccccc1)Cc1nc(N)nc(Nc2ccc(C#N)cc2)n1 [Example 11, 4-(4-Amino-6-((benzyl(methyl)amino)methyl)-1,3,5-triazin-2-ylamino)benzonitrile] | C (Increase in comparison with non-treated of 1.2-1.7 fold is shown as C)
COc1ccccc1Nc1cc(CN(C)Cc2ccccc2)nc(N)n1 [Example 15, 6-((benzyl(methyl)amino)methyl)-N^4-(2-methoxyphenyl)pyrimidine-2,4-diamine] | B (Increase in comparison with non-treated of >1.7-2.0 fold is shown as B)
COc1cccc(Nc2cc(CN(C)Cc3ccccc3)nc(N)n2)c1 [Example 17] | B (Increase in comparison with non-treated of >1.7-2.0 fold is shown as B)
CN(Cc1ccccc1)Cc1cc(Nc2ccc(Cl)cc2)nc(N)n1 [Example 21, 6-((benzyl(methyl)amino)methyl)-N^4-(4-chlorophenyl)pyrimidine-2,4-diamine] | B (Increase in comparison with non-treated of >1.7-2.0 fold is shown as B)
Cc1ccc(Nc2cc(N)nc(CN(C)Cc3ccccc3)n2)cc1 [Example 22, 2-((Benzyl(methyl)amino)methyl)-N^4-(p-tolyl)pyrimidine-4,6-diamine] | B (Increase in comparison with non-treated of >1.7-2.0 fold is shown as B)
Cc1ccc(Nc2nc(N)cc(CN(C)Cc3ccccc3)n2)cc1 [Example 23, 6-((benzyl(methyl)amino)methyl)-N^2-p-tolylpyrimidine-2,4-diamine] | B (Increase in comparison with non-treated of >1.7-2.0 fold is shown as B)
Cc1ccc(Nc2nc(N)nc(CNC3CCc4ccccc4C3)n2)cc1 (centres unmarked) [Example 27, 6-(((1,2,3,4-Tetrahydronaphthalen-2-yl)amino)methyl)-N-(p-tolyl)-1,3,5-triazine-2,4-diamine] | C (Increase in comparison with non-treated of 1.2-1.7 fold is shown as C)
CN(Cc1ccccc1)Cc1cc(Nc2cccc(C#N)c2)nc(N)n1 [Example 29, 3-(2-Amino-6-((benzyl(methyl)amino)methyl)pyrimidin-4-ylamino)benzonitrile] | B (Increase in comparison with non-treated of >1.7-2.0 fold is shown as B)
Cc1ccc(Nc2cc(CN(C)Cc3cccc(C)c3)nc(N)n2)cc1 [Example 32, 6-((Methyl(3-methylbenzyl)amino)methyl)-N^4-p-tolylpyrimidine-2,4-diamine] | C (Increase in comparison with non-treated of 1.2-1.7 fold is shown as C)
Cc1ccc(CN(C)Cc2cc(Nc3ccc(C)cc3)nc(N)n2)cc1 [Example 34, 6-((Methyl(4-methylbenzyl)amino)methyl)-N^4-p-tolylpyrimidine-2,4-diamine] | B (Increase in comparison with non-treated of >1.7-2.0 fold is shown as B)
Cc1ccc(Nc2cc(CN3CCc4ccccc4C3)nc(N)n2)cc1 [Example 35, 6-((3,4-Dihydroisoquinolin-2(1H)-yl)methyl)-N^4-p-tolylpyrimidine-2,4-diamine] | B (Increase in comparison with non-treated of >1.7-2.0 fold is shown as B)
COc1cccc(Nc2cc(CN(C)Cc3cccc(C)c3)nc(N)n2)c1 [Example 38] | B (Increase in comparison with non-treated of >1.7-2.0 fold is shown as B)
Cc1cccc(Nc2cc(CN(C)Cc3cccc(C#N)c3)nc(N)n2)c1 [Example 39, 3-((((2-Amino-6-(m-tolylamino)pyrimidin-4-yl)methyl)(methyl)amino)methyl) benzonitrile] | C (Increase in comparison with non-treated of 1.2-1.7 fold is shown as C)
CCc1ccc(CN(C)Cc2cc(Nc3cccc(OC)c3)nc(N)n2)cc1 [Example 40, 6-(((4-Ethylbenzyl)(methyl)amino)methyl)-N^4-(3-methoxyphenyl)pyrimidine-2,4-diamine] | B (Increase in comparison with non-treated of >1.7-2.0 fold is shown as B)
COCCN(Cc1ccccc1)Cc1cc(Nc2cccc(OC)c2)nc(N)n1 [Example 49, 6-((Benzyl(2-methoxyethyl)amino)methyl)-N^4-(3-methoxyphenyl)pyrimidine-2,4-diamine] | C (Increase in comparison with non-treated of 1.2-1.7 fold is shown as C)
COc1cccc(Nc2cc(CN(C)c3cccc(OC)c3)nc(N)n2)c1 [Example 51] | C (Increase in comparison with non-treated of 1.2-1.7 fold is shown as C)
COc1cccc(CN(C)Cc2cc(Nc3ccc(C)cc3)nc(N)n2)c1 [Example 53, 6-(((3-Methoxybenzyl)(methyl)amino)methyl)-N^4-p-tolylpyrimidine-2,4-diamine] | C (Increase in comparison with non-treated of 1.2-1.7 fold is shown as C)
Cc1ccc(Nc2cc(CN(C)Cc3cccc(C#N)c3)nc(N)n2)cc1 [Example 55, 3-((((2-Amino-6-(p-tolylamino)pyrimidin-4-yl)methyl)(methyl)amino)methyl)benzonitrile] | B (Increase in comparison with non-treated of >1.7-2.0 fold is shown as B)
Cc1ccc(Nc2cc(CN(C)Cc3ccc(C#N)cc3)nc(N)n2)cc1 [Example 57, 4-((((2-Amino-6-(p-tolylamino)pyrimidin-4-yl)methyl)(methyl)amino)methyl)benzonitrile] | C (Increase in comparison with non-treated of 1.2-1.7 fold is shown as C)
Cc1ccc(Nc2cc(CN(C)Cc3ccncc3)nc(N)n2)cc1 [Example 60, 6-((Methyl(pyridin-4-ylmethyl)amino)methyl)-N^4-p-tolylpyrimidine-2,4-diamine] | C (Increase in comparison with non-treated of 1.2-1.7 fold is shown as C)
Cc1ccc(Nc2cc(CN(C)Cc3cccnc3)nc(N)n2)cc1 [Example 61, 6-((Methyl(pyridin-3-ylmethyl)amino)methyl)-N^4-p-tolylpyrimidine-2,4-diamine] | C (Increase in comparison with non-treated of 1.2-1.7 fold is shown as C)
